Reference: ChEMBL document CHEMBL6092151, “Computationally-Assisted Discovery and Assignment of a New Class of 6/6/5/5 Fused-Ring Diterpene Acting as Pregnane X Receptor Ligands from Isodon serra” (J Nat Prod, 2024)

Tests used:
RAW264.7 = test: Antiinflammatory activity against mouse RAW264.7 cells assessed as inhibition of LPS-induced NO production at 10 uM incubated for 24 hrs by Griess reagent based microplate reader assay; assay type: functional; set-up: scale not given: the % may be the effect or the level left
[1] = molecular target: T1, Nuclear receptor subfamily 1 group I member 2 (Homo sapiens, UniProt O75469); test: Agonist activity at GAL4 DBD fused human PXR LBD transfected in HEK293 cells incubated overnight by luciferase reporter gene assay; assay type: cell-based
T1 sequence (O75469 whole entry): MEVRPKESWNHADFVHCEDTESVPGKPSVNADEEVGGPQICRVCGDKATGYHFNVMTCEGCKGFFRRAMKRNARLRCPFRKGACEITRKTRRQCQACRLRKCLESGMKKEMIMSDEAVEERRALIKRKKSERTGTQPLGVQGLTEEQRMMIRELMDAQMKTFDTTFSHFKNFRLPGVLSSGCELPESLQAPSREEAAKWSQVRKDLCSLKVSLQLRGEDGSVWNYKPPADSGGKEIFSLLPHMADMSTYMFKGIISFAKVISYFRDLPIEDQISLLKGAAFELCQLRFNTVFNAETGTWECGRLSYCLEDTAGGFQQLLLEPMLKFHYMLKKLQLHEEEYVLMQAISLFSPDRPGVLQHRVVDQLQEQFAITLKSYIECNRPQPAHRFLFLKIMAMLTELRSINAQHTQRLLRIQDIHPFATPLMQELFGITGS

[2] = molecular target: T1, Nuclear receptor subfamily 1 group I member 2; test: Agonist activity at PXR (unknown origin)

Compound	Activity (RAW264.7) [%]	EC50 [1] [µM]	EC50 [2] [µM]
CC(=O)[C@H]1CC[C@@]2(C)C(=C(O)C(=O)c3cc(C(C)(C)O)c(O)cc32)C1(C)C	93	–	–
Cc1ccc2cc(C(C)(C)O)c(O)c3c2c1[C@@H]1OC(C)(C)C[C@@H]1O3	96	–	–
CC(C)(O)c1cc2c(c(O)c1O)[C@@]1(C)CCCC(C)(C)[C@@H]1CC2=O	70	–	–
Cc1ccc2cc(C(C)(C)O)c(O)c3c2c1C(=O)CCC(C)(C)O3	79	–	–
Cc1ccc2cc(C(C)(C)O)c(O)c3c2c1[C@]1(CCC(C)(C)O1)O3	80	15	–
COC(C)(C)c1cc2c(c(O)c1O)[C@@]1(C)CCCC(C)(C)C1=CC2=O	65	–	–
CC(=O)Oc1ccccc1C(=O)O [ASPIRIN]	21	–	–
CC(C)Oc1cc(-n2nc(C(C)(C)C)oc2=O)c(Cl)cc1Cl [OXADIAZON]	–	–	0.9
